tested on: Setaria viridis (SETVI); assay: Herbicidal pre-emergence action (A), 1280 g/ha; assay type: in vivo; settings: visual grading after ca. 3 weeks vs untreated controls
Summary of the method: (§1)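 Pre-emergence soil-surface spray, 600 l/ha water, 0.5% additive, WP or EC formulation. Sandy loam, double sowing per pot, greenhouse under optimum growth. Visual % damage at ~3 wk vs untreated; 100% = plants died off.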

| SMILES | herbicidal effect SETVI |
| --- | --- |
| Clc1ccccc1-c1nc2ncsc2cc1Cl [Example I-069] | 100% |

tested on: Stellaria media (STEME); assay: Herbicidal pre-emergence action (A), 1280 g/ha; assay type: in vivo; settings: visual grading after ca. 3 weeks vs untreated controls
Summary of the method: as §1

| SMILES | herbicidal effect STEME |
| --- | --- |
| Clc1ccccc1-c1nc2ncsc2cc1Cl [Example I-069] | 90% |

tested on: Echinochloa crus-galli (ECHCG); assay: Herbicidal pre-emergence action (A), 1280 g/ha; assay type: in vivo; settings: visual grading after ca. 3 weeks vs untreated controls, 100% = plants have died off, 0% = as control plants
Summary of the method: as §1

| SMILES | ECHCG, herbicidal effect in percent (%) |
| --- | --- |
| Clc1ccccc1-c1nc2ncsc2cc1Cl [Example I-069] | 100% |

tested on: Matricaria inodora (MATIN); assay: Herbicidal pre-emergence action (A), 1280 g/ha; assay type: in vivo; settings: visual grading after ca. 3 weeks vs untreated controls
Summary of the method: as §1

| SMILES | herbicidal effect MATIN |
| --- | --- |
| Clc1ccccc1-c1nc2ncsc2cc1Cl [Example I-069] | 90% |

tested on: Lolium rigidum (LOLRI); assay: Herbicidal pre-emergence action (A), 1280 g/ha; assay type: in vivo; settings: visual grading after ca. 3 weeks vs untreated controls, 100% = plants have died off, 0% = as control plants
Summary of the method: as §1

| SMILES | LOLRI, herbicidal effect in percent (%) |
| --- | --- |
| Clc1ccccc1-c1nc2ncsc2cc1Cl [Example I-069] | 90% |

tested on: Veronica persica (VERPE); assay: Herbicidal pre-emergence action (A), 1280 g/ha; assay type: in vivo; settings: visual grading after ca. 3 weeks vs untreated controls
Summary of the method: as §1

| SMILES | herbicidal effect VERPE |
| --- | --- |
| Clc1ccccc1-c1nc2ncsc2cc1Cl [Example I-069] | 90% |

tested on: Kochia scoparia (KCHSC; Bassia scoparia); assay: Herbicidal pre-emergence action (A), 1280 g/ha; assay type: in vivo; settings: visual grading after ca. 3 weeks vs untreated controls
Summary of the method: as §1

| SMILES | herbicidal effect KCHSC |
| --- | --- |
| Clc1ccccc1-c1nc2ncsc2cc1Cl [Example I-069] | 90% |

tested on: Alopecurus myosuroides (ALOMY); assay: Herbicidal pre-emergence action (A), 1280 g/ha; assay type: in vivo; settings: visual grading after ca. 3 weeks vs untreated controls, 100% = plants have died off, 0% = as control plants
Summary of the method: as §1

| SMILES | ALOMY, herbicidal effect in percent (%) |
| --- | --- |
| Clc1ccccc1-c1nc2ncsc2cc1Cl [Example I-069] | 100% |

tested on: Digitaria sanguinalis (DIGSA); assay: Herbicidal pre-emergence action (A), 1280 g/ha; assay type: in vivo; settings: visual grading after ca. 3 weeks vs untreated controls, 100% = plants have died off, 0% = as control plants
Summary of the method: as §1

| SMILES | DIGSA, herbicidal effect in percent (%) |
| --- | --- |
| Clc1ccccc1-c1nc2ncsc2cc1Cl [Example I-069] | 100% |

tested on: Poa annua (POAAN); assay: Herbicidal pre-emergence action (A), 1280 g/ha; assay type: in vivo; settings: visual grading after ca. 3 weeks vs untreated controls, 100% = plants have died off, 0% = as control plants
Summary of the method: as §1

| SMILES | POAAN, herbicidal effect in percent (%) |
| --- | --- |
| Clc1ccccc1-c1nc2ncsc2cc1Cl [Example I-069] | 100% |

tested on: Setaria viridis (SETVI); assay: Herbicidal post-emergence action (B), 1280 g/ha; assay type: in vivo; settings: rated visually after about 3 weeks vs untreated controls
Summary of the method: (§2)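 Percent activity is a visual score taken about 3 weeks after treatment, relative to untreated plants, where 100% means the plants died and 0% means no difference from controls. Plants were sprayed on green parts at the one-leaf stage with an aqueous suspension or emulsion containing 0.5% additive at 600 L/ha.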

| SMILES | herbicidal activity SETVI |
| --- | --- |
| Clc1ccccc1-c1nc2ncsc2cc1Cl [Example I-069] | 90% |

tested on: Stellaria media (STEME); assay: Herbicidal post-emergence action (B), 1280 g/ha; assay type: in vivo; settings: not given
Summary of the method: as §2

| SMILES | herbicidal effect STEME |
| --- | --- |
| Clc1ccccc1-c1nc2ncsc2cc1Cl [Example I-069] | 100% |

tested on: Echinochloa crus-galli (ECHCG); assay: Herbicidal post-emergence action (B), 1280 g/ha; assay type: in vivo; settings: rated visually after about 3 weeks vs untreated controls
Summary of the method: as §2

| SMILES | herbicidal activity ECHCG |
| --- | --- |
| Clc1ccccc1-c1nc2ncsc2cc1Cl [Example I-069] | 100% |

tested on: Amaranthus retroflexus (AMARE); assay: Herbicidal post-emergence action (B), 1280 g/ha; assay type: in vivo; settings: rated visually after about 3 weeks vs untreated controls
Summary of the method: as §2

| SMILES | herbicidal activity AMARE |
| --- | --- |
| Clc1ccccc1-c1nc2ncsc2cc1Cl [Example I-069] | 90% |

tested on: Lolium rigidum (LOLRI); assay: Herbicidal post-emergence action (B), 1280 g/ha; assay type: in vivo; settings: one-leaf stage, rated after about 3 weeks vs untreated controls, 100% activity = the plants have died, 0% = like control plants
Summary of the method: as §2

| SMILES | LOLRI, activity rated visually (%) |
| --- | --- |
| Clc1ccccc1-c1nc2ncsc2cc1Cl [Example I-069] | 90% |

tested on: Veronica persica (VERPE); assay: Herbicidal post-emergence action (B), 1280 g/ha; assay type: in vivo; settings: not given
Summary of the method: as §2

| SMILES | herbicidal effect VERPE |
| --- | --- |
| Clc1ccccc1-c1nc2ncsc2cc1Cl [Example I-069] | 100% |

tested on: Kochia scoparia (KCHSC; Bassia scoparia); assay: Herbicidal post-emergence action (B), 1280 g/ha; assay type: in vivo; settings: not given
Summary of the method: as §2

| SMILES | herbicidal effect KCHSC |
| --- | --- |
| Clc1ccccc1-c1nc2ncsc2cc1Cl [Example I-069] | 90% |

tested on: Alopecurus myosuroides (ALOMY); assay: Herbicidal post-emergence action (B), 1280 g/ha; assay type: in vivo; settings: rated visually after about 3 weeks vs untreated controls
Summary of the method: as §2

| SMILES | herbicidal activity ALOMY |
| --- | --- |
| Clc1ccccc1-c1nc2ncsc2cc1Cl [Example I-069] | 100% |

tested on: Poa annua (POAAN); assay: Herbicidal post-emergence action (B), 1280 g/ha; assay type: in vivo; settings: rated visually after about 3 weeks vs untreated controls
Summary of the method: as §2

| SMILES | herbicidal activity POAAN |
| --- | --- |
| Clc1ccccc1-c1nc2ncsc2cc1Cl [Example I-069] | 100% |

tested on: Amaranthus retroflexus (AMARE); assay: Herbicidal post-emergence action (D), 320 g/ha; assay type: in vivo; settings: ca. 3 weeks
Summary of the method: (§3)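 Post-emergence greenhouse test. Sandy loam; spray at single-leaf stage (2–3 wk after sowing); WP or EC in water + 0.5% additive, 600 l/ha. Visual rating ~3 wk post-spray, % effect vs untreated (0 = control, 100 = dead).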

| SMILES | herbicidal effect AMARE |
| --- | --- |
| Clc1ccccc1-c1nc2ncsc2cc1Cl [Example I-069] | 80% |

tested on: Veronica persica (VERPE); assay: Herbicidal post-emergence action (D), 320 g/ha; assay type: in vivo; settings: ca. 3 weeks
Summary of the method: as §3

| SMILES | herbicidal effect VERPE |
| --- | --- |
| Clc1ccccc1-c1nc2ncsc2cc1Cl [Example I-069] | 90% |

tested on: Alopecurus myosuroides (ALOMY); assay: Herbicidal post-emergence action (D), 320 g/ha; assay type: in vivo; settings: ca. 3 weeks
Summary of the method: as §3

| SMILES | herbicidal effect ALOMY |
| --- | --- |
| Clc1ccccc1-c1nc2ncsc2cc1Cl [Example I-069] | 90% |

tested on: Setaria viridis (SETVI); assay: Herbicidal pre-emergence action (C), 320 g/ha; assay type: in vivo; settings: ca. 3 weeks
Summary of the method: (§4)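 Pre-emergence soil-surface spray: WP/EC formulation in water plus 0.5% additive, 600 l/ha, applied over freshly sown, soil-covered seeds in sandy loam. Greenhouse, optimum conditions, ~3 weeks. Visual % damage vs untreated (100% = dead).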

| SMILES | herbicidal effect SETVI |
| --- | --- |
| Clc1ccccc1-c1nc2ncsc2cc1Cl [Example I-069] | 100% |

tested on: Echinochloa crus-galli (ECHCG); assay: Herbicidal pre-emergence action (C), 320 g/ha; assay type: in vivo; settings: ca. 3 weeks
Summary of the method: as §4

| SMILES | herbicidal effect ECHCG |
| --- | --- |
| Clc1ccccc1-c1nc2ncsc2cc1Cl [Example I-069] | 100% |

tested on: Amaranthus retroflexus (AMARE); assay: Herbicidal pre-emergence action (C), 320 g/ha; assay type: in vivo; settings: ca. 3 weeks
Summary of the method: as §4

| SMILES | herbicidal effect AMARE |
| --- | --- |
| Clc1ccccc1-c1nc2ncsc2cc1Cl [Example I-069] | 90% |

tested on: Lolium rigidum (LOLRI); assay: Herbicidal pre-emergence action (C), 320 g/ha; assay type: in vivo; settings: ca. 3 weeks
Summary of the method: as §4

| SMILES | herbicidal effect LOLRI |
| --- | --- |
| Clc1ccccc1-c1nc2ncsc2cc1Cl [Example I-069] | 100% |

tested on: Veronica persica (VERPE); assay: Herbicidal pre-emergence action (C), 320 g/ha; assay type: in vivo; settings: ca. 3 weeks
Summary of the method: as §4

| SMILES | herbicidal effect VERPE |
| --- | --- |
| Clc1ccccc1-c1nc2ncsc2cc1Cl [Example I-069] | 90% |

tested on: Alopecurus myosuroides (ALOMY); assay: Herbicidal pre-emergence action (C), 320 g/ha; assay type: in vivo; settings: ca. 3 weeks
Summary of the method: as §4

| SMILES | herbicidal effect ALOMY |
| --- | --- |
| Clc1ccccc1-c1nc2ncsc2cc1Cl [Example I-069] | 100% |

tested on: Digitaria sanguinalis (DIGSA); assay: Herbicidal pre-emergence action (C), 320 g/ha; assay type: in vivo; settings: ca. 3 weeks
Excerpt: Seeds of mono- and dicotyledonous weed plants and crop plants were sown, in plastic or organic planting pots, in sandy loam and covered with soil. The compounds according to the invention, formulated in the form of wettable powders (WP) or as emulsifiable concentrates (EC), were applied to the surface of the covering soil as aqueous suspension or emulsion, with the addition of 0.5% of an additive, at an application rate of 600 l of water/ha (converted).
Following treatment, the pots were placed in a greenhouse and kept under optimum growth conditions for the test plants. The visual grading of the damage to the test plants was carried out after ca. 3 weeks in comparison to untreated controls (herbicidal effect in percent (%): 100% effect=plants have died off, 0% effect=as control plants).
Tables C1 to C13 below show the effects of selected compounds of the general formula (I) according to table 1 on various harmful plants and an application rate corresponding to 320 g/ha obtained by the experimental procedure mentioned above.

| SMILES | herbicidal effect DIGSA |
| --- | --- |
| Clc1ccccc1-c1nc2ncsc2cc1Cl [Example I-069] | 100% |

Reference: patent US20230151025A1, “SUBSTITUTED THIAZOLOPYRIDINES, SALTS THEREOF AND THEIR USE AS HERBICIDALLY ACTIVE SUBSTANCES” (Bayer Aktiengesellschaft, priority 2020, published 2023)
